Read-outs that look alike come from different tables or passages of the source.
Columns and labels:
COX-1 = target: T1, COX-1 (Homo sapiens, UniProt P23219); assay: Human COX-1 enzyme activity in human whole blood (A23187-stimulated, thromboxane B2 EIA); assay type: cell-based; settings: for inhibition at 100 µM: read-out: COX-1 Inhibition (% at 100 μM)
T1 construct: endogenous in cells; host or cells: heparinised human whole blood from donors, stimulated with the calcium ionophore A23187
Description: (§1) The blood was transported to the laboratory on ice packs and used within 1.5 hours of collection. Upon receipt in the laboratory, the blood was allowed to come to room temperature for 15 minutes prior to distribution in 1 mL aliquots per well of 24 well tissue culture plates. […] Test compounds were dissolved in DMSO, at 1000 fold the final desired concentration, and further diluted, as indicated, in DMSO. One μL of each dilution of the test compound was added per well, in duplicate wells; wells not receiving test compound (e.g., basal, background or control wells) received 1 μL DMSO. […] Louis, Mo., Catalogue No. […] Louis, Mo., Catalogue No. […] (Again, basal, background or control wells not stimulated with A23187 received 1 μL of DMSO.) At 5 hours after the addition of the test compound, all incubations were terminated by placement on ice and the addition of 2 mM EGTA (100 μL of 20 mM EGTA, tetrasodium, in PBS (phosphate buffered saline) without Ca^++ and Mg^++, pH 7.2)). […] One hundred μL of plasma was removed from each blood sample and added to 1 mL of methanol in new 15 mL polypropylene centrifuge tubes, vortexed, and stored overnight at -20° C. […] The samples were assayed for thromboxane B2 using EIA kits supplied by Cayman Chemical Co. […] The % inhibition for COX-1 and COX-2 enzyme activity in human whole blood by the test compounds, at the indicated concentrations, are given in Table 1.

COX-2 = target: T2, COX-2 (Homo sapiens, UniProt P35354); assay: Human COX-2 enzyme activity in human whole blood (LPS-induced, thromboxane B2 EIA); assay type: cell-based; settings: for inhibition at 1 µM: read-out: COX-2 Inhibition (% at 1 μM); for inhibition at 10 µM: read-out: COX-2 Inhibition (% at 10 μM)
T2 construct: To induce COX-2, lipopolysaccharide (LPS) from E. coli; endogenous in cells; host or cells: heparinised human whole blood from donors, with COX-2 induced by E. coli LPS
T2 sequence (P35354 18-604): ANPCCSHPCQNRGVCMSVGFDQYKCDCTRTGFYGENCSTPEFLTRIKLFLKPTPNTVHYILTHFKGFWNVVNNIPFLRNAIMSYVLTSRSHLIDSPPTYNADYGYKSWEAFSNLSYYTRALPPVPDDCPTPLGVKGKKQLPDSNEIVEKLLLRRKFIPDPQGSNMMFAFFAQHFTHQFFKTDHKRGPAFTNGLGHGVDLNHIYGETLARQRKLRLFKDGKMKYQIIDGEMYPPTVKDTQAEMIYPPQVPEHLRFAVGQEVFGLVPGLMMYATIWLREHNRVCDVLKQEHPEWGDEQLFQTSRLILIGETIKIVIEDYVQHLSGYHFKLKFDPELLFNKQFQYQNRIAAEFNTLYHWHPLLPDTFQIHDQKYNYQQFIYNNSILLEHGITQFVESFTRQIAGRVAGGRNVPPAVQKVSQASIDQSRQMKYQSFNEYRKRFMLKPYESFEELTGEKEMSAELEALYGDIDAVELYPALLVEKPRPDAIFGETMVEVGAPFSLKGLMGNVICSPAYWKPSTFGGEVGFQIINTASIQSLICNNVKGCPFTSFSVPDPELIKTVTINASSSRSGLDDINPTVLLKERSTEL
Description: as §1

[1] = 100 μM, human whole blood, A23187 stimulation
[2] = 1 μM, human whole blood, LPS induction
[3] = 10 μM, human whole blood, LPS induction

T1 sequence (P23219 24-599): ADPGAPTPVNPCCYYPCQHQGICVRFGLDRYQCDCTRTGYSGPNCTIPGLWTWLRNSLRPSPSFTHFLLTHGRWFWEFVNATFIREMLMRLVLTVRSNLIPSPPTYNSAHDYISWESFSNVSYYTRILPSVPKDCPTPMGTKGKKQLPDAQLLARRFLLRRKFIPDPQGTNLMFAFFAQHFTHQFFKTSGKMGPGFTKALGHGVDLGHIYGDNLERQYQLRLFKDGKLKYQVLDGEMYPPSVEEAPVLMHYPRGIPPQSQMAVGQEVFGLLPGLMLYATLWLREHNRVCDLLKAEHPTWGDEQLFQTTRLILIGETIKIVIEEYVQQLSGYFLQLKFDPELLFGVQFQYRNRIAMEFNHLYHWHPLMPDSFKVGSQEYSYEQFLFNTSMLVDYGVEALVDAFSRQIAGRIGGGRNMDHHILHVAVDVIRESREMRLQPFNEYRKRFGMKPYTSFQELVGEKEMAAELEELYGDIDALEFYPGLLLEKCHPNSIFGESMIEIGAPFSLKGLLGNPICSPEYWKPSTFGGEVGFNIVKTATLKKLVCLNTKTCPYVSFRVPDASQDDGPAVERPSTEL

| inhibition at 100 µM (COX-1; [1]) [%] | inhibition at 1 µM (COX-2; [2]) [%] | inhibition at 10 µM (COX-2; [3]) [%] | Molecule | also measured |
| --- | --- | --- | --- | --- |
| 90 | 65 | 100 | CS(=O)(=O)c1ccc(-c2cc(COCCCO[N+](=O)[O-])nn2-c2ccc(Cl)cc2)cc1 [Example 7e, 1-(1-(4-Chlorophenyl)-3-((3-(nitrooxy)propoxy)methyl)pyrazol-5-yl)-4-(methylsulfonyl)benzene] | – |
| 80 | 50 | 95 | CS(=O)(=O)c1ccc(-c2cc(C(F)(F)OCCCO[N+](=O)[O-])nn2-c2ccccc2)cc1 [Example 6f, 1-(3-(Difluoro(3-(nitrooxy)propoxy)methyl)-1-phenylpyrazol-5-yl)-4-(methylsulfonyl)benzene] | – |
| 60 | 45 | 90 | CS(=O)(=O)c1ccc(-c2cc(/C=C/CCO[N+](=O)[O-])nn2C2CCCCC2)cc1 [Example 21c, 1-(3-((1E)-4-(Nitrooxy)but-1-enyl)-1-cyclohexylpyrazol-5-yl)-4-(methylsulfonyl)benzene] | – |
| 0 | 15 | 70 | CS(=O)(=O)c1ccc(-c2cc(C(=O)CCCO)nn2-c2ccc(Br)cc2)cc1 [Example 14d, 1-(1-(4-Bromophenyl)-5-(4-(methylsulfonyl)phenyl)pyrazol-3-yl)-4-hydroxybutan-1-one] | – |
| – | – | – | 4-(5-(Chlorophenyl)-3-((3-(nitrooxy)propoxy)methyl)benzene-sulfonamide [Example 36c] | COX-1 Inhibition (% at 100 μM) (COX-1; [1]): 55%; COX-2 Inhibition (% at 1 μM) (COX-2; [2]): 40%; COX-2 Inhibition (% at 10 μM) (COX-2; [3]): 80% |
| 30 | 0 | 10 | NS(=O)(=O)c1ccc(-c2cc(C(=O)CCCO)nn2C2CCCCC2)cc1 [Example 43g, 4-(1-Cyclohexyl-3-(4-hydroxybutanoyl)pyrazol-5-yl)benzenesulfonamide] | – |
| – | – | – | CS(=O)(=O)c1ccc(-c2cc(CO[N+](=O)[O-])nn2C2CCCCCCC2)cc1 [Example 1h] | COX-1 Inhibition (% at 100 μM) (COX-1; [1]): 60%; COX-2 Inhibition (% at 1 μM) (COX-2; [2]): 50%; COX-2 Inhibition (% at 10 μM) (COX-2; [3]): 90% |
| 40 | 10 | 25 | CS(=O)(=O)c1ccc(-c2cc(CO)nn2C2CCCCCC2)cc1 [Example 2c, 1-(1-Cycloheptyl-3-(hydroxymethyl)pyrazol-5-yl)-4-(methylsulfonyl)benzene] | – |
| – | – | – | NS(=O)(=O)c1ccc(-c2c(-c3ccccc3)noc2COCCO[N+](=O)[O-])cc1 [Example 27b] | COX-1 Inhibition (% at 100 μM) (COX-1; [1]): 65%; COX-2 Inhibition (% at 1 μM) (COX-2; [2]): 50%; COX-2 Inhibition (% at 10 μM) (COX-2; [3]): 100% |
| – | – | – | NS(=O)(=O)c1ccc(-c2c(-c3ccccc3)noc2COCC(F)(F)C(F)(F)CO)cc1 [Example 33a] | COX-1 Inhibition (% at 100 μM) (COX-1; [1]): 75%; COX-2 Inhibition (% at 1 μM) (COX-2; [2]): 40%; COX-2 Inhibition (% at 10 μM) (COX-2; [3]): 100% |
| 100 | 85 | 100 | COc1ccc(-n2nc(COCCCO[N+](=O)[O-])cc2-c2ccc(S(C)(=O)=O)cc2)cc1 [Example 39, 4-(1-(4-Methoxyphenyl)-3-((3-(nitrooxy)propoxy)methyl)pyrazol-5-yl)-1-(methylsulfonyl)benzene] | – |
| 10 | 45 | 85 | CS(=O)(=O)c1ccc(-c2cc(COCCCO[N+](=O)[O-])nn2C2CCCCC2)cc1 [Example 16c, 1-(1-Cyclohexyl-3-((3-(nitrooxy)propoxy)methyl)pyrazol-5-yl)-4-(methylsulfonyl)benzene] | – |
| 80 | 135 | 100 | CS(=O)(=O)c1ccc(-c2cc(COc3cccc(CO)c3)nn2C2CCCCC2)cc1 [Example 17b, 1-(1-Cyclohexyl-3-((3-(hydroxymethyl)phenoxy)methyl)pyrazol-5-yl)-4-(methylsulfonyl)benzene] | – |
| 10 | 30 | 60 | CS(=O)(=O)c1ccc(-c2cc(C(=O)CCCO)nn2-c2ccc(Cl)cc2)cc1 [Example 44d, 1-(1-(4-Chlorophenyl)-5-(4-(methylsulfonyl)phenyl)pyrazol-3-yl)-4-hydroxybutan-1-one] | – |
| 10 | 20 | 55 | CS(=O)(=O)c1ccc(-c2cc(COCCCO)nn2C2CCCCC2)cc1 [Example 16b, 1-(1-Cyclohexyl-3-((3-hydroxypropoxy)methyl)pyrazol-5-yl)-4-(methylsulfonyl)benzene] | – |
| 40 | 0 | 45 | CS(=O)(=O)c1ccc(-c2cc(/C=C/CO[N+](=O)[O-])nn2C2CCCCC2)cc1 [Example 41, 1-(3-((1E)-3-(Nitrooxy)prop-1-enyl)-1-cyclohexylpyrazol-5-yl)-4-(methylsulfonyl)benzene] | – |
| – | – | – | 4-(5-(4-Chlorophenyl)-3-((3-hydroxypropoxy)methyl)pyrazolyl)-benzenesulfonamide [Example 36b] | COX-1 Inhibition (% at 100 μM) (COX-1; [1]): 30%; COX-2 Inhibition (% at 1 μM) (COX-2; [2]): 30%; COX-2 Inhibition (% at 10 μM) (COX-2; [3]): 55% |
| 80 | 55 | 95 | CS(=O)(=O)c1ccc(-c2cc(COCCCO[N+](=O)[O-])nn2-c2ccc(F)cc2)cc1 [Example 18e, 1-(1-(4-Fluorophenyl)-3-((3-(nitrooxy)propoxy)methyl)pyrazol-5-yl)-4-(methylsulfonyl)benzene] | – |
| 40 | 45 | 90 | CS(=O)(=O)c1ccc(-c2cc(COCCCO)nn2-c2ccc(F)cc2)cc1 [Example 18d, 1-(1-(4-Fluorophenyl)-3-((3-hydroxypropoxy)methyl)pyrazol-5-yl)-4-(methylsulfonyl)benzene] | – |
| 35 | 35 | 75 | CS(=O)(=O)c1ccc(-c2cc(COCCO[N+](=O)[O-])nn2C2CCCCC2)cc1 [Example 15e, 1-(1-Cyclohexyl-3-((2-(nitrooxy)ethoxy)methyl)pyrazol-5-yl)-4-(methylsulfonyl)benzene] | – |
| – | – | – | NS(=O)(=O)c1ccc(-c2c(-c3ccccc3)noc2COCCS(=O)(=O)CCO[N+](=O)[O-])cc1 [Example 37c] | COX-1 Inhibition (% at 100 μM) (COX-1; [1]): −15%; COX-2 Inhibition (% at 1 μM) (COX-2; [2]): 20%; COX-2 Inhibition (% at 10 μM) (COX-2; [3]): 20% |
| – | – | – | COc1ccc(-n2nc(COCCCO[N+](=O)[O-])cc2-c2ccc(S(C)(=O)=O)cc2)cc1[N+](=O)[O-] [Example 10e, 1-(1-(4-Methoxy-3-nitrophenyl)-3-((3-(nitrooxy)propoxy)methyl)pyrazol-5-yl)-4-(methylsulfonyl)benzene] | inhibition at 100 µM (COX-1): 85%; inhibition at 1 µM (COX-2): 70%; inhibition at 10 µM (COX-2): 100% |
| 25 | 0 | 25 | CS(=O)(=O)c1ccc(-c2cc(COc3cccc(CO[N+](=O)[O-])c3)nn2C2CCCCC2)cc1 [Example 17d, 1-(1-Cyclohexyl-3-((3-((nitrooxy)methyl)phenoxy)methyl)pyrazol-5-yl)-4-(methylsulfonyl)benzene] | – |
| – | – | – | NS(=O)(=O)c1ccc(-c2c(-c3ccccc3)noc2COCCCO[N+](=O)[O-])cc1 [Example 26b] | COX-1 Inhibition (% at 100 μM) (COX-1; [1]): 70%; COX-2 Inhibition (% at 1 μM) (COX-2; [2]): 55%; COX-2 Inhibition (% at 10 μM) (COX-2; [3]): 100% |

| Molecule | inhibition at 100 µM (COX-1; [1]) [%] | inhibition at 1 µM (COX-2; [2]) [%] | inhibition at 10 µM (COX-2; [3]) [%] | also measured |
| --- | --- | --- | --- | --- |
| CC(O)CCOCc1cc(-c2ccc(S(C)(=O)=O)cc2)n(-c2ccccc2)n1 (stereo not drawn) [Example 19b, 1-(3-((3-Hydroxybutoxy)methyl)-1-phenylpyrazol-5-yl)-4-(methylsulfonyl)benzene] | 40 | 20 | 100 | – |

Reference: patent US7442802B2, “Cyclooxygenase-2 selective inhibitors, compositions and methods of use” (NitroMed, Inc., priority 2002, dated 2008)
